Measured values: US20220354852A1, “TARGETING WNT SIGNALING FOR IMPROVED GLIOMA IMMUNOTHERAPY” (CITY OF HOPE, priority 2021, published 2022)

How the values were obtained:
[1] = tested on: PBT138 patient tumor-derived glioma cells; assay: In vitro cytotoxicity assay, IL13Rα2-CAR T cells ± ICG-001; format: cell-based, human
Protocol: FIG. 2. Combinational strategy of CAR T cell-mediated tumor-antigen targeting with ICG-001 induced differentiation in glioma. […] (B) Cytotoxicity of HER2 CAR-T cells and tumor cells (1:5 ratio) was enhanced by ICG-001 at concentrations 1.25-5 μM. (C) Treatment of PBT138 patient glioma tumors with CAR T IL13Rα2+/−ICG-001.
It has also been observed that ICG-001-induced differentiation of PBT017 and PBT138 (data not shown).

[2] = tested on: Wnt target genes BIRC5/Survivin and EphB2; assay: Quantitative RT-PCR of Wnt target genes in mouse glioma cell lines; format: cell-based
Protocol: FIG. 15. Expression of target genes post-ICG-001 treatment (0-10 μM) by RT-PCR using (A-C) mouse Survivin in GL261-IL13, GL261, and K-luc cells. (D) Survivin in PBT147 human glioma cells. (E, F) Luciferase reporter assay indicating downregulation of Survivin/BIRC5 in PBT017 and PBT030 cell lines.
FIG. 16 is a table showing the expression of the target genes survivin/BIRC5 post-ICG-001 treatment ([…]) as detected by RT-PCR and Luciferase Reporter Assay.
ICG-001 differentially affects the expression of the Wnt target genes BIRC5/Survivin and EphB2 in vitro. […] The effects of ICG-001 on Wnt/CBP/β-catenin signaling were further confirmed using a Survivin-luciferase reporter assay (FIG. 15). ICG-001's selective effects on the expression of Survivin and EphB2 may serve as indicators of ICG-001 on target tissue activity in vivo (FIG. 16) and a readout for pharmacokinetics/pharmacodynamics (PK/PD) as used previously in clinical trials with the second-generation CBP/β-catenin specific antagonist PRI-724 (Anthony et al. 2013).

[3] = tested on: KIF20A; assay: qRT-PCR of KIF20A in PBT147 and PBT030 cells; format: cell-based, human
Protocol: ICG-001 activity in vitro in human and mouse glioma cell lines. Initially, the effects of the specific CBP/β-catenin antagonist ICG-001 was tested in vitro as a single agent on human and mouse glioma cell lines (5 PBT human and 3 mouse glioma lines).

[4] = tested on: PBT147 and PBT030 glioma cell lines; assay: Global proteomic analysis of PBT147 and PBT030; format: cell-based, human; settings: 72 h
Protocol: FIG. 18. Proteomics analysis of PBT147 and PBT030 cell lines treated with ICG-001 (0-10 μM) for 72 h. (A) Protein density was calculated by the difference in log normalized levels for each protein between the four treated samples and the appropriate untreated sample. (B) Calculating the difference in log levels corresponds also to looking at the log of the fold changes in each protein. For both cell lines, the log fold-change for each protein at […] was plotted against the log fold-change at 10 μg. These plots are shown in A, with the points color-coded by cell line. This highlights a positive linear relationship between the log fold changes at 5 μg and 10 μg in both cell lines. […] The heatmap has been generated using Ward's method for clustering and the Manhattan (L1) distance. To highlight patterns of similar changes in regulation over cell lines and doses, rather than absolute differences in protein levels, quantile normalization has been used before creating the heatmap, with protein levels in each sample being normalized to that of a uniform distribution on −1≤x≤1.
FIG. 19 is a table showing a proteomics analysis at 72 hours for two cell lines (PB147, PB030) treated with ICG-001 in vitro at three doses (0 μg, 5 μg, 10 μg). 1557 proteins were quantified.
Proteomics data analysis. […] To examine the effect of the drug, the difference in log normalized levels for each protein between the four treated samples and the appropriate untreated sample was calculated, which corresponds to examining the log of the fold changes in each protein after treatment. For each of the two cell lines, the log fold change for each protein at 5 μg was plotted against the log fold change at 10 μg. These plots are shown in FIG. 17, with the points colored-coded by cell line. The line of (linear) regression is calculated and shown for each cell line.
The heatmap has been constructed by using Ward's method for clustering and the Manhattan (L1) distance. To highlight patterns of similar changes in regulation over cell-lines and doses, rather than absolute differences in protein levels, quantile normalization has been used before creating the heatmap, with protein levels in each sample being normalized those of a uniform distribution on −1≤x≤1.
Proteomics analyses of the PBT147 and PBT030 glioma cell lines after treatment with ICG-001 to elucidate targeted pathways in vitro. […]
To examine the effect of ICG-001, the difference in log-normalized levels was calculated for each protein between the four treated samples and the appropriate untreated samples (which corresponds to looking at the log of the fold changes in each protein). […] The line of (linear) regression is calculated and plotted for each cell line. […]

[5] = tested on: tumor cell glycolytic activity; settings: previously shown; cited from earlier work
[6] = tested on: normal somatic stem cell population; settings: preclinical studies; cited from earlier work

## O=C1[C@H](Cc2ccc(O)cc2)N2C(=O)CCN(C(=O)NCc3ccccc3)[C@H]2CN1Cc1cccc2ccccc12 [ICG-001]
[1]
  tumor cell killing, ICG-001 in combination with IL13Rα2-CAR T cells: synergistic killing
[2]
  expression of Wnt/p300/β-catenin target gene EphB2: upregulating
[2]; ICG-001 0-10 μM
  expression of Wnt/CBP/β-catenin target gene BIRC5/Survivin: selectively downregulated
[3]
  KIF20A expression: decreased expression of KIF20A
[4]; 5 μM versus 10 μM
  dose effect on protein fold change, PBT030 versus PBT147: significantly greater in PBT030 than PBT147
[4]; ICG-001 0, 5, and 10 μM
  HA and LDHA protein expression: loss
  PKM1 protein expression: increased
  protein translation: overall increase in protein translation
[5]
  glycolytic activity and extracellular acidification of tumor cells: decrease in glycolytic activity and extracellular acidification
[6]
  therapy-induced toxicity: ameliorated therapy-induced toxicity
